This is an account of results in patent US20180155386A1, “PROGESTERONE ANTAGONISTS” (Evestra, Inc., priority 2011, published 2018).

For test [1], the system named is nidation (implantation) sites in pregnant rats. In words: Antinidation test in rat. Conditions: rats with implantation sites / rats treated; 3 mg/day s.c. from day 5 of pregnancy, counted at day 9; 0/3 = full progesterone antagonist. Type of test: in vivo, rats (Sprague-Daley). The procedure: For every compound to be screened in rats (Sprague-Daley) 3 control rats (vehicle treated, s.c.), 3 rats treated (s.c.) with a known progestin antagonist and 3 rats treated (s.c.) with the test compound (3 mg/day) are used. Female rats will be placed with male rats for 3 to 4 days and exam the vagina for sperm plugs every morning. The presence of a sperm plug will indicate day 1 of pregnancy. Pregnant rats will be treated daily with 3 mg of the screened compound at beginning on day 5 of pregnancy. At day 9 of gestation the rats will be euthanized and nidation sites counted.

The test system of test [2] is uterine weight of non-pregnant guinea pigs. In words: Uterine weights of guinea pigs. Conditions: 10 mg s.c. from day 10 of cycle; sacrifice day 18; untreated guinea pig 1.2 g; higher than 1.2 g indicates pure progesterone antagonistic activity. It is filed as in vivo. The protocol:
3 Non-pregnant guinea pigs in the luteal phase of the cycle will be treated with 10 mg of the compound subcutaneously beginning on day 10 of the cycle. Animals were sacrificed on day 18 after the start of the treatment and the uterine weights were obtained at the time of sacrifice. Comparisons will be made to onapristone-treated animals at 10 mg/animal/day s.c

The test system of test [3] is progesterone receptor positive breast cancer. Conditions: rat model of PR positive breast cancer; cited from earlier work.
Test [4] addresses T1, progesterone receptor-LBD-UAS-bla HEK 293T cells (Homo sapiens, UniProt P06401).
T1 construct: host or cells: HEK 293T
T1 sequence (P06401 679-913 limits assumed): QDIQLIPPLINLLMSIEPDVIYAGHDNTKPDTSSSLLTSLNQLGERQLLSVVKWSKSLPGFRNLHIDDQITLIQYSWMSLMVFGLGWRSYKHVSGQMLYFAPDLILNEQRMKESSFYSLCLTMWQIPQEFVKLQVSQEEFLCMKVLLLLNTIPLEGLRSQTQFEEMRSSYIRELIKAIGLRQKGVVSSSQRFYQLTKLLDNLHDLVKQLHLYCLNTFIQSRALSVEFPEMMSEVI
The test can be described thus: Progesterone Antagonist Screen (GeneBLAzer Beta-lactamase reporter, activated by control agonist R5020). Type of test: cell-based. Conditions: values relative to RU486, which is 100%; HEK 293T reporter cells, agonist R5020 at EC80. The procedure:
Determination of the agonist/antagonist nature of the test compounds was carried out using Invitrogen's SelectScreen™ Cell-based nuclear receptor profiling service which uses the GeneBLAzer® Beta-lactamase reporter technology. Basically this assay uses a Beta-lactamase cDNA under transcriptional control of an Upstream Activator Sequence (UAS). The UAS is activated by the GAL4 transcription factor DNA binding domain (DBD), which is expressed as a fusion protein with the target receptor ligand binding domain (LBD). Upon ligand binding, the GAL4(DBD)-NR(LDB) binds to the UAS, which controls transcription of Beta-lactamase. Beta-lactamase cleaves a special engineered fluorescent substrate which results in a change in the measured fluorescence wavelength.
The generalized protocol used for the Progesterone Antagonist Screen, activated by control Agonist R5020 is as follows:
The progesterone receptor-LBD-UAS-bla HEK 293T cells are thawed and prepared as described above for the Agonist screen. 4 μL of a 10× serial dilution of control antagonist RU-486 (starting concentration, 100 nM) or test compounds are added to appropriate wells of a TC-Treated assay plate. 32 μL of cell suspension is added to the wells which is then pre-incubated at 37° C./5% CO2 in a humidified incubator with test compounds and control antagonist titration for 30 minutes. 4 μL of a 10× control agonist (see above) at the predetermined EC80 concentration is added to wells containing the control antagonist or test compounds. The plate is incubated for 16-24 hours at 37° C./5% CO2 in a humidified incubator. 8 μL of 1 μM Substrate Loading Solution is added to each well and the plate is incubated for 2 hours at room temperature. The plate is then read on a fluorescence plate reader (Tecan Safire).

Test [5] deals with human breast cancer cell line T47D. The test can be described thus: In vitro antiproliferative activity in human breast cancer cell line T47D (MTT). It is filed as cell-based. Conditions: 168 h, T47D cells, 7 days after cell seeding. The procedure: Cells from frozen stock were expanded in T75 cell culture flasks. For the experiment, cells in the logarithmic growth phase (70% confluent) were cultivated for 3 day without estradiol and then washed with PBS, detached by trypsination and suspended in 5 ml of fresh RPMI-1640 medium. Cells were centrifuged for 5 min at 1000 rpm and the pellet was resuspended in RPMI-1640 medium.
Cells were seeded in 96-well plates with a density of 5000 cells/well/in 0.18 mL RPMI-1640 medium. Cells were allowed to attach for 24 h. Visual control for viability at 24 h and cell culture medium change. At this time point, compounds were added in 20 μl to the final concentration. After 3 days medium and compounds where changed again. Finally, 7 days after cell seeding, 20 μl MTT-solution was added to each well and 4 h later the formed tetrazolium salt was measured with a photometer.

For the compound `COCC(=O)[C@@]1(OC(C)=O)CC[C@H]2[C@@H]3CCC4=CC(=O)CCC4=C3[C@@H](c3ccc(N(C)C)cc3)C[C@@]21C` [CDB-4124, Proellex, reference compound], the “Implantation Sites” value in test [1] is on record as 0/3. In addition, the “Uterine Weights of Guinea Pigs Treated with antiprogestins (grams)” value (from here on “Uterine Weights of Guinea Pigs Treated”) in test [2] is given as 1.41 grams. Also, in test [3], the “development of new tumors” value is given as “decrease in the development of new tumors” and the tumor size result is reported as “regression of tumor size”.

For `CC(=O)c1ccc([C@H]2C[C@@]3(C)[C@@H](CC[C@@]3(O)C#CC(F)(F)F)[C@@H]3CCC4=CC(=O)CCC4=C32)cc1` [Compound 1a, 11β-(4′-Acetylphenyl)-17β-hydroxy-17-(3,3,3-trifluoro-1-propynyl)-estra-4,9-diene-3-one], the Emax in test [4] came out at 6%. The “Implantation Sites” value in test [1] was 1/3. The compound further returned an IC50 in test [5] of 17000 pM. For the same compound, the “Uterine Weights of Guinea Pigs Treated” value in test [2] amounted to 1.3 grams.

On to `CC(=O)c1ccc([C@H]2C[C@@]3(C)C(CC[C@@]3(O)/C=C/C(F)(F)F)C3CCC4=CC(=O)CCC4=C32)cc1` (stereo partly drawn) [Compound 1b, 11β-(4′-Acetylphenyl)-17β-hydroxy-17-(3,3,3-trifluoroprop-1(E)-enyl)-estra-4,9-diene-3-one], for which the Emax in test [4] amounted to 33%. In addition, the “Implantation Sites” value in test [1] was 0/3. Moreover, the IC50 in test [5] amounted to 640 pM. In test [2], the “Uterine Weights of Guinea Pigs Treated” value stood at 0.785 grams.

Compound `CC(=O)c1ccc([C@H]2C[C@@]3(C)[C@@H](CC[C@@]3(O)CC(F)=C(F)F)[C@@H]3CCC4=CC(=O)CCC4=C32)cc1` [Compound 1c, 11β-(4′-Acetylphenyl)-17β-hydroxy-17-(2,3,3-trifluoroprop-2-enyl)-estra-4,9-diene-3-one] had an Emax in test [4] of 21%. Also, the “Implantation Sites” value in test [1] is 0/3. This compound also gave a 50% inhibitory concentration (IC50) in test [5] of 3100 pM. In addition, the “Uterine Weights of Guinea Pigs Treated” value in test [2] was 1.8 grams.

In turn, `C=CC(F)(F)[C@]1(O)CC[C@H]2[C@@H]3CCC4=CC(=O)CCC4=C3[C@@H](c3ccc(C(C)=O)cc3)C[C@@]21C` [Compound 1d, 11β-(4′-Acetylphenyl)-17β-hydroxy-17-(1,1-difluoroprop-2-enyl)-estra-4,9-diene-3-one] yielded a maximum response (Emax) in test [4] of 119%. Inhibition in test [5] was half-maximal at 300 pM (IC50).

On to `CCC(F)(F)[C@]1(O)CC[C@H]2[C@@H]3CCC4=CC(=O)CCC4=C3[C@@H](c3ccc(C(C)=O)cc3)C[C@@]21C` [Compound 1e, 11β-(4′-Acetyl-phenyl)-17β-hydroxy-17-(1,1-difluoropropyl)-estra-4,9-diene-3-one], for which, in test [4], the maximum response (Emax) was 191%. This compound showed an IC50 in test [5] of 300 pM.

Take `C[C@]12C[C@H](c3ccc(C(=O)C4CC4)cc3)C3=C4CCC(=O)C=C4CC[C@H]3[C@@H]1CC[C@@]2(O)C(F)(F)C(F)(F)F` [Compound 2a, 11β-(4′-[Cyclopropylcarbonyl]phenyl)-17β-hydroxy-17-(1,1,2,2,2-pentafluoroethyl)-estra-4,9-diene-3-one]: the Emax in test [4] came out at 91%. In addition, the “Implantation Sites” value in test [1] is 0/3. The same compound gave an IC50 in test [5] of 1200 pM. In test [2], the “Uterine Weights of Guinea Pigs Treated” value came to 2.3 grams.

Turning to `CC#C[C@]1(O)CC[C@H]2[C@@H]3CCC4=CC(=O)CCC4=C3[C@@H](c3ccc(C(=O)C4CC4)cc3)C[C@@]21C` [Compound 2b, 11β-(4′-[Cyclopropylcarbonyl]phenyl)-17β-hydroxy-17-(1-propynyl)-estra-4,9-diene-3-one], the Emax in test [4] amounted to 45%. In test [5], this compound showed an IC50 of 640 pM.

Turning to `C[C@]12C[C@H](c3ccc(C(=O)C4CC4)cc3)C3=C4CCC(=O)C=C4CC[C@H]3[C@@H]1CC[C@@]2(O)CCCO` [Compound 2c, 11β-(4′-[Cyclopropylcarbonyl]phenyl)-17β-hydroxy-17-(3-hydroxypropyl)-estra-4,9-diene-3-one], the maximal response (Emax) in test [4] is 2%. Further, in test [5], the concentration for half-maximal inhibition (IC50) was 4600 pM. The “Uterine Weights of Guinea Pigs Treated” value in test [2] was found to be 1.35 grams.

Regarding `C[C@]12C[C@H](c3ccc(C(=O)C4CC4)cc3)C3=C4CCC(=O)C=C4CCC3C1CC[C@@]2(O)/C=C\CO` (stereo partly drawn) [Compound 2d, 11β-(4′-[Cyclopropylcarbonyl]phenyl)-17β-hydroxy-17-(3-hydroxyprop-1(Z)-enyl)-estra-4,9-diene-3-one], the Emax in test [4] amounted to 6%. Besides, in test [2], the “Uterine Weights of Guinea Pigs Treated” value turned out to be 0.99 grams.

In test [4], `C=C1CCO[C@]12CCC1C3CCC4=CC(=O)CCC4=C3[C@@H](c3ccc(C(=O)C4CC4)cc3)C[C@@]12C` (stereo partly drawn) [Compound 2e, 11β-(4′-[Cyclopropylcarbonyl]phenyl)-17,23-epoxy-19,24-dinor-17α-chola-4,9,20-triene-3-one] displayed an Emax of 48%. In addition, it took 370 pM to reach half-maximal inhibition in test [5] (IC50). Also, the “Uterine Weights of Guinea Pigs Treated” value in test [2] is given as 1.02 grams.

In the case of `C[C@]12C[C@H](c3ccc(-c4cccnc4)cc3)C3=C4CCC(=O)C=C4CCC3C1CC[C@@]2(O)/C=C/C(F)(F)F` (stereo partly drawn) [Compound 3a, 11β-(4′-[3-Pyridinyl]phenyl)-17β-hydroxy-17-(3,3,3-trifluoroprop-1(E)-enyl)-estra-4,9-diene-3-one], the Emax in test [4] was 190%. The “Implantation Sites” value in test [1] is 0/4. In addition, the “Uterine Weights of Guinea Pigs Treated” value in test [2] is on record as 0.87 grams.

Take `C=CC(F)(F)[C@]1(O)CC[C@H]2[C@@H]3CCC4=CC(=O)CCC4=C3[C@@H](c3ccc(-c4cccnc4)cc3)C[C@@]21C` [Compound 3b, 11β-(4′-[3-Pyridinyl]phenyl)-17β-hydroxy-17-(1,1-difluoroprop-2-enyl)-estra-4,9-diene-3-one]: the Emax in test [4] worked out at 200%. The “Implantation Sites” value in test [1] is listed as 0/4.

With `CC#C[C@]1(O)CC[C@H]2[C@@H]3CCC4=CC(=O)CCC4=C3[C@@H](c3ccc(C(=O)c4ccc(C#N)cc4)cc3)C[C@@]21C` [Compound 4, 11β-(4′-[4-Cyanobenzoyl]phenyl)-17β-hydroxy-17-(1-propynyl)-estra-4,9-diene-3-one], in test [4], the maximal effect (Emax) came out at 38%.

Consider `CN(C)c1ccc([C@H]2C[C@]3(C)[C@@H](CC[C@]3(O)CCCO)[C@@H]3CCC4=CC(=O)CCC4=C32)cc1` [ZK98299, reference compound], for which the “Implantation Sites” value in test [1] is recorded as 2/3. Besides, the “Uterine Weights of Guinea Pigs Treated” value in test [2] is listed as 1.07 grams.
